US6380194B1 (Janssen Pharmaceutica N.V., priority 1996, dated 2002)

Legend:
[1] = Cytotoxicity in mock-infected MT-4 cells (MTT); settings: human
Protocol: (§1) A rapid, sensitive and automated assay procedure was used for the in vitro evaluation of anti-HIV agents. An […] T4-cell line, MT-4, which was previously shown (Koyanagi et al., Int. J. Cancer, 36, 445-451, 1985) to be highly susceptible to and permissive for HIV infection, served as the target cell line. Inhibition of the HIV-induced cytopathic effect was used as the end point. The viability of both HIV- and mock-infected cells was assessed spectrophotometrically via the in situ reduction of 3-(4,5-dimethylthiazol-2-yl)-2,5-diphenyltetrazolium bromide (MTT). The 50% cytotoxic concentration (CC50 in μM) was defined as the concentration of compound that reduced the absorbance of the mock-infected control sample by 50%. The percent protection achieved by the compound in HIV-infected cells was calculated by the following formula: [formula]
(§2) whereby (ODT)HIV is the optical density measured with a given concentration of the test compound in HIV-infected cells; (ODC)HIV is the optical density measured for the control untreated HIV-infected cells; (ODC)MOCK is the optical density measured for the control untreated mock-infected cells; all optical density values were determined at 540 nm. The dose achieving 50% protection according to the above formula was defined as the 50% inhibitory concentration (IC50 in μM). The ratio of CC50 to IC50 was defined as the selectivity index (SI).

mock-infected MT-4 cells = experiment: Cytotoxicity in mock-infected MT-4 cells (MTT)
Protocol: as §1, §2

HIV-1 = experiment: Inhibition of HIV-induced cytopathic effect in MT-4 cells (MTT); format: cell-based; settings: dose achieving 50% protection of HIV-infected MT-4 cells, mean, number of experiments in brackets
Protocol: as §1, §2

[2] = Human immunodeficiency virus 1, MT4

SMILES | CC50 ([1]; mock-infected MT-4 cells) | further results
N#Cc1ccc(Nc2nc(N)nc(Cc3c(Cl)ccc4[nH]ccc34)n2)cc1 [Compound 8, 4-[[4-amino-6-[(5-chloro-1H-indol-4-yl)methyl]-1,3,5-triazin-2-yl]amino]benzonitrile] | 14.4 µM | –
CC(=N)Nc1nc(Cc2c(Cl)cccc2Cl)nc(Nc2ccc(C#N)cc2)n1 [Compound 28] | – | CC50 (mock-infected MT-4 cells): > 100 µM; IC50 (HIV-1): 0.003 µM
CCOc1cccc(Cc2nc(N)nc(Nc3ccc(C#N)cc3)n2)c1 [Compound 48] | – | CC50 (mock-infected MT-4 cells): > 20 µM; IC50 (HIV-1): 0.074 µM
CC(=O)Nc1nc(Cc2c(Cl)cccc2Cl)nc(Nc2ccc(C#N)cc2)n1 [Compound 22, N-[4-[(4-cyanophenyl)amino]-6-[(2,6-dichlorophenyl)methyl]-1,3,5-triazin-2-yl]-acetamide] | > 100 µM | –
CC(C)NC(=O)Nc1nc(Cc2c(Cl)cccc2Cl)nc(Nc2ccc(C#N)cc2)n1 [Compound 6, N-[4-[(4-cyanophenyl)amino]-6-[(2,6-dichlorophenyl)methyl]-1,3,5-triazin-2-yl]-N′-(1-methylethyl)urea] | > 100 µM | –
N#Cc1ccc(Nc2nc(Cc3c(Cl)cccc3Cl)nc(NN)n2)cc1 [Compound 15, 4-[[4-[(2,6-dichlorophenyl)methyl]-6-hydrazino-1,3,5-triazin-2yl]amino]benzonitrile] | 44.6 µM | –
N#Cc1ccc(Nc2nc(Cc3c(Cl)cccc3Cl)nc(NCC(=O)O)n2)cc1 [Compound 16, N-[4-[(4-cyanophenyl)amino]-6-[(2,6-dichlorophenyl)methyl]-1,3,5-triazin-2-yl]glycine] | 79.9 µM | –
N#Cc1ccc(Nc2nc(Cc3c(Cl)cccc3Cl)nc(NCC(O)CO)n2)cc1 (racemic) [Compound 26, (±)-4-[[4-[(2,6-dichlorophenyl)methyl]-6-[(2,3-dihydroxypropyl)amino]-1,3,5-triazin-2-yl]amino]benzonitrile] | 59.7 µM | IC50 (HIV-1; [2]): 0.068 µM
N#Cc1ccc(Nc2nc(Cc3c(Cl)cccc3Cl)nc(NC(=N)N)n2)cc1 [Compound 20, N-[4-[(4-cyanophenyl)amino]-6-[(2,6-dichlorophenyl)methyl]-1,3,5-triazin-2-yl]-guanidine] | 4.3 µM | –
N#Cc1ccc(Nc2nc(Cc3c(Cl)cccc3Cl)nc(NCCCNC(N)=O)n2)cc1 [Compound 23, N-[3-[[4-[(4-cyanophenyl)amino]-6-[(2,6-dichlorophenyl)methyl]-1,3,5-triazin-2-yl]amino]propyl]urea] | 36.7 µM | –
COC(=O)CN(c1ccc(C#N)cc1)c1nc(N)nc(Cc2c(Cl)cccc2Cl)n1 [Compound 39] | – | CC50 [1]: > 20 µM; IC50 (HIV-1; [2]): 0.078 µM
COc1cccc(Cc2nc(N)nc(Nc3ccc(C#N)cc3)n2)c1 [Compound 47] | – | CC50 (mock-infected MT-4 cells): > 20 µM; IC50 (HIV-1): 0.082 µM
N#Cc1ccc(Nc2nc(N)nc(Cc3c(Cl)cccc3Cl)n2)cc1 [Compound 1, 4-[[4-amino-6-[(2,6-dichlorophenyl)methyl]-1,3,5-triazin-2-yl]amino]benzonitrile] | > 100 µM | –
NC(=O)c1ccc(Nc2nc(N)nc(Cc3c(Cl)ccc4[nH]ccc34)n2)cc1 [Compound 9, 4-[[4-amino-6-[(5-chloro-1H-indol-4-yl)methyl]-1,3,5-triazin-2-yl]amino]benzamide] | 54.4 µM | –
N#Cc1ccc(Nc2nc(Cc3c(Cl)cccc3Cl)nc(NCC(N)=O)n2)cc1 [Compound 14, [N-[4-[(4-cyanophenyl)amino]-6-[(2,6-dichlorophenyl)methyl]-1,3,5-triazin-2-yl]]aminoacetamide] | 9.1 µM | –
N#Cc1ccc(Nc2nc(Cc3c(Cl)cccc3Cl)nc(NO)n2)cc1 [Compound 33, 4-[[4-[(2,6-dichlorophenyl)methyl]-6-(hydroxyamino)-1,3,5-triazin-2-yl]amino]benzonitrile] | 14.1 µM | –
CN(C)CCNc1nc(Cc2c(Cl)cccc2Cl)nc(Nc2ccc(C#N)cc2)n1 [Compound 29] | – | IC50 (HIV-1): 0.05 µM
CN(C)c1nc(Cc2c(Cl)cccc2Cl)nc(N(c2ccc(C#N)cc2)c2ccc(C#N)cc2)n1 [Compound 38, 4,4′-[[4-[(2,6-dichlorophenyl)methyl]-6-(dimethylamino)-1,3,5-triazin-2-yl]imino]bisbenzonitrile] | > 100 µM | –
CN(C)C=Nc1nc(Cc2c(Cl)cccc2Cl)nc(Nc2ccc(C#N)cc2)n1 [Compound 62, 4-[[4-[(2,6-dichlorophenyl)methyl]-6-[[(dimethylamino)methylene]amino]-1,3,5-triazin-2-yl]amino]benzonitrile] | > 100 µM | –
N#Cc1ccc(Nc2nc(Cc3c(Cl)cccc3Cl)nc(NC(CCO)C(N)=O)n2)cc1 (racemic) [Compound 34, (±)-2-[[4-[(4-cyanophenyl)amino]-6-[(2,6-dichlorophenyl)amino]-6-[(2,6-dichlorophenyl)methyl]-1,3,5-triazin-2-yl]amino-4-hydroxybutanamide] | – | CC50 (mock-infected MT-4 cells): 42.3 µM; IC50 (HIV-1): 0.057 µM
N#Cc1ccc(Nc2nc(N)nc(C(CC3CC3)c3c(Cl)cccc3Cl)n2)cc1 (racemic) [Compound 61] | – | CC50 (mock-infected MT-4 cells): 53.4 µM; IC50 (HIV-1): 6.9 µM
